For 24 compounds, IC50 results are on record in US20230416228A1 (Forkhead Biotherapeutics, Inc., priority 2020, published 2023).

Counter-ions that a name gives are not always drawn.

T1 sequence (Q12778 whole entry T24A/S256A/S319A): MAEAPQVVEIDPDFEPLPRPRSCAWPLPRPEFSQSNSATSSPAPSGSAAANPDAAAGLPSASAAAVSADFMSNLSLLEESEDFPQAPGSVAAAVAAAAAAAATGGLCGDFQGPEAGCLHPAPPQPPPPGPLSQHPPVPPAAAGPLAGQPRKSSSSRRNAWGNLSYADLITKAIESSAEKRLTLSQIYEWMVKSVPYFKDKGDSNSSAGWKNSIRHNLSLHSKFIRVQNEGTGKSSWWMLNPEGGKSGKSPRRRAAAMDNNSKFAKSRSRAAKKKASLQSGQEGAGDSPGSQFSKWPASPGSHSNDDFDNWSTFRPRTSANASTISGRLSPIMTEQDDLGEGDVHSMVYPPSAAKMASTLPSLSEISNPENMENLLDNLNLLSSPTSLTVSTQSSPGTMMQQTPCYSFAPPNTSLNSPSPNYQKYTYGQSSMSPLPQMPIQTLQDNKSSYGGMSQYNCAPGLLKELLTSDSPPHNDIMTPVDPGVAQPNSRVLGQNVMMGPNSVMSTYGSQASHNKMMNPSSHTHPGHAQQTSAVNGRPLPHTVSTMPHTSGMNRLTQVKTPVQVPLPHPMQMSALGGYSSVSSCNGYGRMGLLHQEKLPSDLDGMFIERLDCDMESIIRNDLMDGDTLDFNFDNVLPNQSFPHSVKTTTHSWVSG

This assay has as its target T1, human FOXO1 (constitutively active form Thr24Ala, Ser256Ala, Ser319Ala) (Homo sapiens, UniProt Q12778, S256A/S319A/T24A).
T1 construct: expressed in transfected cells; host or cells: HEK293 cells transfected with pcDNA3.1 plasmid
Kind of assay: FOXO1 inhibitor activity assay: cell-based transcriptional (luciferase) reporter assay in HEK293 cells. Particulars: HEK293 cells transfected with insulin response element firefly luciferase reporter, FOXO1 and Renilla luciferase; 10-point dose response 50 μM to 2.5 nM; 24 hours. In a few lines:
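IC50 and maximal inhibition were fitted by 4-parameter logistic regression on normalized firefly/Renilla luciferase ratios. The 0% reference used RFP in place of FOXO1, and the 100% reference was DMSO-only with all plasmids.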
(In general: Reporter assays use an easily measured gene product as a stand-in for the process of interest.)
Turning to `COc1cc(F)c2[nH]c(-c3cc(NC(=O)c4ccc(N5CC(OC)C5)nc4)nn3C)nc2c1` [Compound A-187, N-[5-(7-fluoro-5-methoxy-1H-benzimidazol-2-yl)-1-methyl-pyrazol-3-yl]-6-(3-methoxyazetidin-1-yl)pyridine-3-carboxamide], the IC50 (usually the midpoint of a concentration-inhibition curve) was in the range of 300 to 1000 nM.
For `C[C@@H]1COCCN1c1ccc(C(=O)Nc2cc(-c3nc4ccccc4[nH]3)n(C)n2)cn1` [Compound A-229, N-[5-(1H-benzimidazol-2-yl)-1-methyl-pyrazol-3-yl]-6-[(3R)-3-methylmorpholin-4-yl]pyridine-3-carboxamide], the IC50 lay within 100 to 300 nM.
To `COCCOc1ccc(C(=O)Nc2cc(-c3nc4cccc(F)c4[nH]3)n(C)n2)cc1Cl` [Compound A-164, 3-chloro-N-[5-(7-fluoro-1H-benzimidazol-2-yl)-1-methyl-pyrazol-3-yl]-4-(2-methoxyethoxy)benzamide] belongs less than 100 nM.
`O=C(Nc1cc(-c2nc3ccccc3[nH]2)[nH]n1)c1ccc(N2CCN(CCO)CC2)cc1` [Compound A-181] showed an IC50 of less than 100 nM.
`COc1ccc(C(=O)Nc2cc(-c3nc4cc(OCCO)ccc4[nH]3)[nH]n2)cc1Cl` [Compound A-277, 3-chloro-N-[5-[5-(2-hydroxyethoxy)-1H-benzimidazol-2-yl]-1H-pyrazol-3-yl]-4-methoxy-benzamide] had an IC50 of less than 100 nM.
To `O=C(Nc1cc(-c2nc3ccccc3[nH]2)[nH]n1)c1ccc(N2C[C@H](O)[C@@H](O)C2)nc1` [Compound A-60, N-[5-(1H-benzimidazol-2-yl)-1H-pyrazol-3-yl]-6-[(3S,4S)-3,4-dihydroxy-pyrrolidin-1-yl]pyridine-3-carboxamide] belongs greater than 1000 nM.
As for `O=C(Nc1cc(-c2nc3cc(OC(F)(F)F)ccc3[nH]2)[nH]n1)c1ccc(N2CCC(CO)CC2)nc1` [Compound A-114, 6-[4-(hydroxymethyl)-1-piperidyl]-N-[5-[5-(trifluoromethoxy)-1H-benzimidazol-2-yl]-1H-pyrazol-3-yl]pyridine-3-carboxamide], the IC50 was greater than 1000 nM.
To `Cn1nc(NC(=O)c2ccc(N3CCOCC3)nc2)cc1-c1nc2cccc(F)c2[nH]1` [Compound A-135, N-[5-(4-fluoro-1H-benzimidazol-2-yl)-1-methyl-pyrazol-3-yl]-6-morpholino-pyridine-3-carboxamide] belongs 100 to 300 nM; to `Cn1nc(NC(=O)c2ccc(N3CCOCC3)nc2)cc1-c1nc2ccccc2[nH]1` [Compound A-210, N-[5-(1H-benzimidazol-2-yl)-1-methyl-pyrazol-3-yl]-6-morpholino-pyridine-3-carboxamide], less than 100 nM.
The compound `CN(C1CCN(c2ccc(C(=O)Nc3cc(-c4nc5ccccc5[nH]4)[nH]n3)cn2)CC1)S(C)(=O)=O` [Compound A-169, N-[5-(1H-benzimidazol-2-yl)-1H-pyrazol-3-yl]-6-[4-[methyl(methyl-sulfonyl)amino]-1-piperidyl]pyridine-3-carboxamide] had an IC50 of 100 to 300 nM.
As for `Cn1nc(NC(=O)c2ccc(N3CC4CC(C3)N4)nc2)cc1-c1nc2ccccc2[nH]1` [Compound A-284, N-[5-(1H-benzimidazol-2-yl)-1-methyl-pyrazol-3-yl]-6-(3,6-diazabicyclo[3.1.1]heptan-3-yl)pyridine-3-carboxamide], the figure is 100 to 300 nM.
Compound `CN(C)C1CCN(c2ccc(C(=O)Nc3cc(-c4nc5cc(F)ccc5[nH]4)n(C)n3)cn2)CC1` [Compound A-133, 6-[4-(dimethylamino)-1-piperidyl]-N-[5-(5-fluoro-1H-benzimidazol-2-yl)-1-methyl-pyrazol-3-yl]pyridine-3-carboxamide] registered an IC50 of 100 to 300 nM.
`COc1ccc(C(=O)Nc2n[nH]c(-c3nc4ccccc4[nH]3)c2Cl)cc1Cl` [Compound A-74, N-[5-(1H-benzimidazol-2-yl)-4-chloro-1H-pyrazol-3-yl]-3-chloro-4-methoxy-benzamide] returned an IC50 greater than 1000 nM.
`Cn1nc(NC(=O)c2ccc(N3CCOCC3)nc2)cc1-c1nc2cc(F)ccc2[nH]1` [Compound A-148, N-[5-(5-fluoro-1H-benzimidazol-2-yl)-1-methyl-pyrazol-3-yl]-6-morpholino-pyridine-3-carboxamide] showed an IC50 of 100 to 300 nM.
For the compound `COc1cc(F)c2[nH]c(-c3cc(NC(=O)c4ccc(N5CCN(C(C)=O)CC5)nc4)nn3C)nc2c1` [Compound A-240, 6-(4-acetylpiperazin-1-yl)-N-[5-(7-fluoro-5-methoxy-1H-benzimidazol-2-yl)-1-methyl-pyrazol-3-yl]pyridine-3-carboxamide], the IC50 was less than 100 nM.
`Cn1nc(NC(=O)c2ccc(N3CC[C@@H](O)C3)nc2)cc1-c1nc2ccccc2[nH]1` [Compound A-225, N-[5-(1H-benzimidazol-2-yl)-1-methyl-pyrazol-3-yl]-6-[(3R)-3-hydroxy-pyrrolidin-1-yl]pyridine-3-carboxamide] registered an IC50 of 300 to 1000 nM.
In the case of `COc1cc(F)c2[nH]c(-c3cc(NC(=O)c4ccc(N5CCN(CCO)CC5)cc4)nn3C)nc2c1` [Compound A-222, N-[5-(7-fluoro-5-methoxy-1H-benzimidazol-2-yl)-1-methyl-pyrazol-3-yl]-4-[4-(2-hydroxyethyl)piperazin-1-yl]benzamide], the IC50 is less than 100 nM.
`O=C(O)CCN1CCN(c2ccc(C(=O)Nc3cc(-c4nc5ccccc5[nH]4)[nH]n3)cc2)CC1` [Compound A-197, 3-[4-[4-[[5-(1H-benzimidazol-2-yl)-1H-pyrazol-3-yl]carbamoyl]phenyl]-piperazin-1-yl]propanoic acid hydrochloride] returned an IC50 greater than 1000 nM.
Compound `COC1CN(c2ccc(C(=O)Nc3cc(-c4nc5ccccc5[nH]4)n(CCO)n3)cn2)C1` [Compound A-196, N-[5-(1H-benzimidazol-2-yl)-1-(2-hydroxyethyl)pyrazol-3-yl]-6-(3-methoxyazetidin-1-yl)pyridine-3-carboxamide] returned an IC50 greater than 1000 nM.
To `O=C(Nc1cc(-c2nc3ccccc3[nH]2)[nH]n1)c1ccc(OCCO)c(C(F)(F)F)c1` [Compound A-152, N-[5-(1H-benzimidazol-2-yl)-1H-pyrazol-3-yl]-4-(2-hydroxyethoxy)-3-(trifluoromethyl)benzamide] belongs less than 100 nM.
On to `Cn1nc(NC(=O)c2ccc(N3CCC4(COC4)C3)nc2)cc1-c1nc2ccccc2[nH]1` [Compound A-268, N-[5-(1H-benzimidazol-2-yl)-1-methyl-pyrazol-3-yl]-6-(2-oxa-7-azaspiro[3.4]octan-7-yl)pyridine-3-carboxamide], for which the IC50 was in the range of 100 to 300 nM.
As for `COCCOc1ccc(C(=O)Nc2cc(-c3nc4ccccc4[nH]3)[nH]n2)cc1C` [Compound A-94, N-[5-(1H-benzimidazol-2-yl)-1H-pyrazol-3-yl]-4-(2-methoxyethoxy)-3-methyl-benzamide], the figure is less than 100 nM.
In turn, `CC1CN(c2ccc(C(=O)Nc3cc(-c4nc5ccccc5[nH]4)n(C)n3)cn2)CC(CO)O1` (single isomer, unassigned) [Compound A-292, N-[5-(1H-benzimidazol-2-yl)-1-methyl-pyrazol-3-yl]-6-[2-(hydroxymethyl)-6-methyl-morpholin-4-yl]pyridine-3-carboxamide] showed an IC50 of less than 100 nM.
For the compound `COC1CN(c2ccc(C(=O)Nc3cc(-c4nc5cc(F)ccc5[nH]4)n(C)n3)cn2)C1` [Compound A-128, N-[5-(5-fluoro-1H-benzimidazol-2-yl)-1-methyl-pyrazol-3-yl]-6-(3-methoxyazetidin-1-yl)pyridine-3-carboxamide], the IC50 fell in the range of 300 to 1000 nM.
